ChEMBL document CHEMBL4020766, “Design and synthesis of potent inhibitors of the mono(ADP-ribosyl)transferase, PARP14” (Bioorg Med Chem Lett, 2017)
pIC50: −log10 of the molar value.

What was measured:
[1] = molecular target: T1, Protein mono-ADP-ribosyltransferase PARP14 (Homo sapiens, UniProt Q460N5); experiment: Inhibition of recombinant human His6-tagged PARP14 catalytic/WWE domain (1459 to 1801 residues) expressed in Escherichia coli BL21(DE3) preincubated for 15 mins followed by biotinylated NAD+ addition by chemiluminescence assay; conditions: for pIC50: read-out: IC50; for IC50: read-out: pIC50 (converted)
T1 sequence (Q460N5 whole entry, the tested form may be a part): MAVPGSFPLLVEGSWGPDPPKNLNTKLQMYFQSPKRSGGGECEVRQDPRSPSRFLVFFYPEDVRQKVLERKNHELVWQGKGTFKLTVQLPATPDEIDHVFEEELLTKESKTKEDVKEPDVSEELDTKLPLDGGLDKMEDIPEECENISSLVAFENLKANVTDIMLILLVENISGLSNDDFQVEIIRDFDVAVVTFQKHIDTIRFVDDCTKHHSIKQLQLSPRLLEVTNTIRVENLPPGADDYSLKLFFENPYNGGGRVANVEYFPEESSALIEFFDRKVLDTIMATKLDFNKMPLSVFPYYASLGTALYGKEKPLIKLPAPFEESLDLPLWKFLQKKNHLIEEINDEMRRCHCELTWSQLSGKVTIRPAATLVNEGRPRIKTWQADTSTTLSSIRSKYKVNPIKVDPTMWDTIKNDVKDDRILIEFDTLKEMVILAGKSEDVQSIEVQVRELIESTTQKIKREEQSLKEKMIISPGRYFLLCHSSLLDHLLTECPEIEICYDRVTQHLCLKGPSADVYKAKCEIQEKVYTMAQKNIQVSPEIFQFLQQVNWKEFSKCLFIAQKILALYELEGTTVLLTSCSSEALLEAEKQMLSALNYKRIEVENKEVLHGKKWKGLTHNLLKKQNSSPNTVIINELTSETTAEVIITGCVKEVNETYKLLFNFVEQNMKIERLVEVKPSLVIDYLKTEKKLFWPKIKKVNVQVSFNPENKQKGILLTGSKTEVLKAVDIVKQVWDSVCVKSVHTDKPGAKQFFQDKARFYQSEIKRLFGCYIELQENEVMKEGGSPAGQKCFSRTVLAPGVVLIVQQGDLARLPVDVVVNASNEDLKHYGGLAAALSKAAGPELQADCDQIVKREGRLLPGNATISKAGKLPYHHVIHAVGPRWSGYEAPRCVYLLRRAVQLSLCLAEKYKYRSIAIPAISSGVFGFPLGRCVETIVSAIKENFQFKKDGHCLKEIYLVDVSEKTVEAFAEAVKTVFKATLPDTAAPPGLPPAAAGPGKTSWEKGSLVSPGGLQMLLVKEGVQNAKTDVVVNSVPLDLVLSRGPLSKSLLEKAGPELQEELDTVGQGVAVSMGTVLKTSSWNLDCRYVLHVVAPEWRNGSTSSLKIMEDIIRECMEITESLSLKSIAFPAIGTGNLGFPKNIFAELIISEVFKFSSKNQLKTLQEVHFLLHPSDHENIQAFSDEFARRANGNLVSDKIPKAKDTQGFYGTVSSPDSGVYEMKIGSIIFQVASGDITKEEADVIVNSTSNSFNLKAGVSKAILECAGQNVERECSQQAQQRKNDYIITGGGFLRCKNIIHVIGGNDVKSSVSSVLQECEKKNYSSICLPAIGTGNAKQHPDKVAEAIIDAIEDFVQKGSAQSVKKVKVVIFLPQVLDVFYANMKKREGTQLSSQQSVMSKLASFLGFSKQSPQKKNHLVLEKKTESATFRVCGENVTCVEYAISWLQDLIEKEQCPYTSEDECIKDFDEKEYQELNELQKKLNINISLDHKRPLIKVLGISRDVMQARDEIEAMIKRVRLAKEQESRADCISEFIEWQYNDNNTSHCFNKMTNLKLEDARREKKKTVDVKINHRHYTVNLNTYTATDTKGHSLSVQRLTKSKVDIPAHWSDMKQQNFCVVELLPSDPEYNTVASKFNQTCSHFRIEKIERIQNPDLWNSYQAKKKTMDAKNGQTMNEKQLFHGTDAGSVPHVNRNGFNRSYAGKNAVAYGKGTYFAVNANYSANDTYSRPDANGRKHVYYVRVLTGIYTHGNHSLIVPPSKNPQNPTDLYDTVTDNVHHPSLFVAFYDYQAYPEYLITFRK

[2] = molecular target: T1, Protein mono-ADP-ribosyltransferase PARP14; experiment: Inhibition of recombinant human His6-tagged PARP14 catalytic/WWE domain (1459 to 1801 residues) expressed in Escherichia coli BL21(DE3) at 5 uM preincubated for 15 mins followed by biotinylated NAD+ addition by chemiluminescence assay relative to control
[3] = molecular target: T2, Poly [ADP-ribose] polymerase 1 (Homo sapiens, UniProt P09874); experiment: Inhibition of recombinant human full length His6-tagged PARP1 expressed in Escherichia coli BL21(DE3) preincubated for 15 mins followed by biotinylated NAD+ addition by chemiluminescence assay
T2 sequence (P09874 whole entry, the tested form may be a part): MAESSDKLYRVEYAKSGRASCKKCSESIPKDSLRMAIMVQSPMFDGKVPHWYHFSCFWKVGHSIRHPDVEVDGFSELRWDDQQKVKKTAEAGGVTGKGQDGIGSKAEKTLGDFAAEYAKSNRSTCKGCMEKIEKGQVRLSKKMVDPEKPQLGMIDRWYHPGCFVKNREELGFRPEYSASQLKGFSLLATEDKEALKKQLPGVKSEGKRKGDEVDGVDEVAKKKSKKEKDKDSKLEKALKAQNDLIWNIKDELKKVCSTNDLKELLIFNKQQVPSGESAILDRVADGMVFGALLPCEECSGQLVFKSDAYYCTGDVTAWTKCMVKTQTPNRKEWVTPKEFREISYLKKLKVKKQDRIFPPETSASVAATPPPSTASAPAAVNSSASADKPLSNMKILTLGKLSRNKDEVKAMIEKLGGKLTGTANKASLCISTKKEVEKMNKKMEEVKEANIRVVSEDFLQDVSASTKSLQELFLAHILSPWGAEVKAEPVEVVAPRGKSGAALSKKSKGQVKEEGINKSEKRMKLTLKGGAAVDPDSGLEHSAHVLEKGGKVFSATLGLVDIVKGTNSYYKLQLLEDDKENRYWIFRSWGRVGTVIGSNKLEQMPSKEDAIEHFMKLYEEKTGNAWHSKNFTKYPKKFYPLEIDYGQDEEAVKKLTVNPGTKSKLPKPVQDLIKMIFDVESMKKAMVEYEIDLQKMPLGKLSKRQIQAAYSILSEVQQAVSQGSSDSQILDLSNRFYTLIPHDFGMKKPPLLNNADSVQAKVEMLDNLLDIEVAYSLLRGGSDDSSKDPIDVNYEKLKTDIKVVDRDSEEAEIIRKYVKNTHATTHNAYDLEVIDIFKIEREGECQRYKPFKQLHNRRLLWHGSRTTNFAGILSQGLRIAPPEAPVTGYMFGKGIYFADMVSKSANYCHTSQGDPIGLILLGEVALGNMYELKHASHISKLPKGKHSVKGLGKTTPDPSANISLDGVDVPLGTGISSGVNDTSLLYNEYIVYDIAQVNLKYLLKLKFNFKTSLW

[4] = molecular target: T3, Poly [ADP-ribose] polymerase tankyrase-1 (Homo sapiens, UniProt O95271); experiment: Inhibition of recombinant human His6-tagged PARP5a catalytic domain (1091 to 1325 residues) expressed in Escherichia coli BL21(DE3) preincubated for 15 mins followed by biotinylated NAD+ addition by chemiluminescence assay; conditions: for pIC50: read-out: IC50; for IC50: read-out: pIC50 (converted)
T3 sequence (O95271 whole entry): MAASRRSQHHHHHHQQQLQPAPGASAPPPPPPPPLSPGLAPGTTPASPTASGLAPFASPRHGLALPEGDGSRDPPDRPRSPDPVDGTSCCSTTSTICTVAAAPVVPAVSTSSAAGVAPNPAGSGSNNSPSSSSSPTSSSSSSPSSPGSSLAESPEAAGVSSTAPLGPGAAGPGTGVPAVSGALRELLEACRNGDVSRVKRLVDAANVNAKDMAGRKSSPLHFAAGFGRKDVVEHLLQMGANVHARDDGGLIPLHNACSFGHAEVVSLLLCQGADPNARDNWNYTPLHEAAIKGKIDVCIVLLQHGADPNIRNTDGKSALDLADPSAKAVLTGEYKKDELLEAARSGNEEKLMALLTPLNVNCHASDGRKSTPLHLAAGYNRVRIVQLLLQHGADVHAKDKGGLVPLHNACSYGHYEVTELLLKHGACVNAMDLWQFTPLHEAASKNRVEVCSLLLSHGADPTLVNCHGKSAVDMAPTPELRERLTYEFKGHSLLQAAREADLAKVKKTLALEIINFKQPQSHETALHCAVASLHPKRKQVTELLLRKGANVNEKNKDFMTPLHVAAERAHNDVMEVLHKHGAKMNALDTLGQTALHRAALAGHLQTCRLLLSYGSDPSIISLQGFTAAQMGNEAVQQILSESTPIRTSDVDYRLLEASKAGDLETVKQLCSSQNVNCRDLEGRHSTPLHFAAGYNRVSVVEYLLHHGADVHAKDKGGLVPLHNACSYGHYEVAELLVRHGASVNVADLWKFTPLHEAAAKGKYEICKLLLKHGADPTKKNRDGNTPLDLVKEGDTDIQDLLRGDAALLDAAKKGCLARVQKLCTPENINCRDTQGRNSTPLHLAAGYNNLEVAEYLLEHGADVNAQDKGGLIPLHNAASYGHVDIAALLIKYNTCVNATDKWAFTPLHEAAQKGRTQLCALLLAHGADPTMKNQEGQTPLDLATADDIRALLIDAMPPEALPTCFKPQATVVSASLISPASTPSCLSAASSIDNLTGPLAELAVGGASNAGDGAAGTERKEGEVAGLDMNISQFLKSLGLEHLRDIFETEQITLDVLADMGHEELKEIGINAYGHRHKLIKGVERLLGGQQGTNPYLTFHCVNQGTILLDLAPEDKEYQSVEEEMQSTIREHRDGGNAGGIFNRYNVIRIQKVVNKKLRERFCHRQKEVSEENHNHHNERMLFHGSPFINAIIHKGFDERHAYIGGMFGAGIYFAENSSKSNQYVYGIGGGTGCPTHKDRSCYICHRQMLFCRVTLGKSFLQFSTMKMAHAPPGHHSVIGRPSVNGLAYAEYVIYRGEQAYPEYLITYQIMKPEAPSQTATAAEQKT

Homo sapiens = species: Homo sapiens; experiment: Selectivity ratio of IC50 for recombinant human His6-tagged PARP5a catalytic domain (1091 to 1325 residues) to IC50 for recombinant human His6-tagged PARP14 catalytic/WWE domain (1459 to 1801 residues)
[5] = molecular target: T4, Protein mono-ADP-ribosyltransferase PARP12 (Homo sapiens, UniProt Q9H0J9); experiment: Inhibition of His6-tagged PARP12 (unknown origin) preincubated for 15 mins followed by biotinylated NAD+ addition by chemiluminescence assay
T4 sequence (Q9H0J9 whole entry): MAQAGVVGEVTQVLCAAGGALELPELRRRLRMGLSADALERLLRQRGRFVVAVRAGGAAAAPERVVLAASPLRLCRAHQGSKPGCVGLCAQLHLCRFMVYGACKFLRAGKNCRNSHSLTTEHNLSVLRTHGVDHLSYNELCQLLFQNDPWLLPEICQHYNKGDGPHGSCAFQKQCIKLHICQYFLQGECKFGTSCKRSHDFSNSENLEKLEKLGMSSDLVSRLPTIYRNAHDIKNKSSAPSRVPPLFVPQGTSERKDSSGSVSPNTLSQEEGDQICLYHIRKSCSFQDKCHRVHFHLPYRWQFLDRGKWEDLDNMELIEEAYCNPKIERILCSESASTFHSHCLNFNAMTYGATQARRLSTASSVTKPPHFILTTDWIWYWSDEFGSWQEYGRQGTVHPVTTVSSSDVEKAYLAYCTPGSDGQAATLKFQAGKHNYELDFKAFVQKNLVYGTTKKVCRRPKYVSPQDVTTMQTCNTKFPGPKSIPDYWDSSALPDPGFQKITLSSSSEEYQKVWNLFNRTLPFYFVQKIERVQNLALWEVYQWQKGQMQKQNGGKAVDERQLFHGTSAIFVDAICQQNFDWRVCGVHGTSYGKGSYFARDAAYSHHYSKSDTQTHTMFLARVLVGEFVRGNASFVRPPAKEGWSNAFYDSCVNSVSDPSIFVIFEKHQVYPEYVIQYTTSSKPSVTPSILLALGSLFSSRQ

[6] = molecular target: T5, Protein mono-ADP-ribosyltransferase PARP15 (Homo sapiens, UniProt Q460N3); experiment: Inhibition of His6-tagged PARP15 (unknown origin) preincubated for 15 mins followed by biotinylated NAD+ addition by chemiluminescence assay
T5 sequence (Q460N3 whole entry): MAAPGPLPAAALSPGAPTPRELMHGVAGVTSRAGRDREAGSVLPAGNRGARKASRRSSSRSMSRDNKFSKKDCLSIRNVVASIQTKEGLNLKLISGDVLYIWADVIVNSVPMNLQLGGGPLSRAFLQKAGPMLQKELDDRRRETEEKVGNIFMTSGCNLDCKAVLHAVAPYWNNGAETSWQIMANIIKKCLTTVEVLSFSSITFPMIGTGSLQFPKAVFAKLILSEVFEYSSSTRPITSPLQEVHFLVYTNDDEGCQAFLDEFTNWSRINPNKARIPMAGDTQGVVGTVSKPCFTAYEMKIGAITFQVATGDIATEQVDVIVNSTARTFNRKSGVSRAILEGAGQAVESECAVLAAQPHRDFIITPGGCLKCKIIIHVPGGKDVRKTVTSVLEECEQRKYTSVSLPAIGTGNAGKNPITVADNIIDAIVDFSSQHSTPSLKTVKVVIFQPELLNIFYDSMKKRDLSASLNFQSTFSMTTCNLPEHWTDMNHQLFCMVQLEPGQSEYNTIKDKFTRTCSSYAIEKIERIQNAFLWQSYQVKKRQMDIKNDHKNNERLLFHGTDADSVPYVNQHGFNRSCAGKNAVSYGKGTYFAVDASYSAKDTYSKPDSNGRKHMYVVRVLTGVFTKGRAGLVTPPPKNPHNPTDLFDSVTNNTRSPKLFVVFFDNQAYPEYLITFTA

[7] = molecular target: T6, Protein mono-ADP-ribosyltransferase PARP16 (Homo sapiens, UniProt Q8N5Y8); experiment: Inhibition of His6-tagged PARP16 (unknown origin) preincubated for 15 mins followed by biotinylated NAD+ addition by chemiluminescence assay
T6 sequence (Q8N5Y8 whole entry): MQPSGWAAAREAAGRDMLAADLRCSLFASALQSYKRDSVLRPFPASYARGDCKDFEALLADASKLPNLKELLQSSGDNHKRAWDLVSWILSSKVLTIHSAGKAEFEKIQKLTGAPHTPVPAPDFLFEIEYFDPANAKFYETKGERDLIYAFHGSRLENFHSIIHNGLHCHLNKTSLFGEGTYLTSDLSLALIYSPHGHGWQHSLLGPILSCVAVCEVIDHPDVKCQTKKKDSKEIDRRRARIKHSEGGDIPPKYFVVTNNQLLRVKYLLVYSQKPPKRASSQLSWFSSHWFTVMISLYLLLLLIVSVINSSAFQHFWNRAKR

[8] = molecular target: T2, Poly [ADP-ribose] polymerase 1; experiment: Inhibition of recombinant human full length His6-tagged PARP1 expressed in Escherichia coli BL21(DE3) at 5 uM preincubated for 15 mins followed by biotinylated NAD+ addition by chemiluminescence assay relative to control

| pIC50 [1] | pIC50 [3] | pIC50 [4] | Ratio IC50 (Homo sapiens) | Structure (SMILES) | other results |
| --- | --- | --- | --- | --- | --- |
| 6.19 | – | – | – | NC(=O)c1cccc(NC(=O)/C=C\C(=O)N2CCC(CCc3ccccc3)CC2)c1 | IC50 [1]: 676 nM |
| 6.35 | 6.64 | 5.32 | 11 | NC(=O)c1cccc(NC(=O)/C=C\C(=O)N2CCC(Cc3ccccc3)CC2)c1 | – |
| 6.16 | 5.80 | 5.57 | – | NC(=O)c1cccc(NC(=O)/C=C\C(=O)N2CCCC(c3ccccc3)C2)c1 (stereo unspecified) | IC50 [4]: 575 nM |
| 5.96 | – | – | – | NC(=O)c1cccc(NC(=O)/C=C\C(=O)N2CCCCC2c2ccccc2)c1 (stereo unspecified) | – |
| 6.57 | 6.57 | 5.10 | 30 | NC(=O)c1cccc(NC(=O)/C=C\C(=O)N2CCC(c3ccc(F)cc3)CC2)c1 | – |
| 5.46 | – | – | – | NC(=O)c1cccc(NC(=O)/C=C\C(=O)N2CCCCC2Cc2ccccc2)c1 (stereo unspecified) | – |
| 5.85 | – | – | – | NC(=O)c1cccc(NC(=O)/C=C\C(=O)N2CCCC(Oc3ccccc3)C2)c1 (stereo unspecified) | inhibition [8]: 90% |
| 6.39 | 6.29 | 5.03 | 23 | NC(=O)c1cccc(NC(=O)/C=C\C(=O)N2CCN(c3ccccc3F)CC2)c1 | – |
| 6.05 | 6.43 | 5.22 | 6.7 | NC(=O)c1cccc(NC(=O)/C=C\C(=O)N2CCN(c3ccccc3)CC2)c1 | – |
| 5.66 | – | – | – | NC(=O)c1cccc(NC(=O)/C=C\C(=O)N2CCC(c3ccccc3)CC2)c1 | – |
| 5.38 | 6.10 | 5.01 | – | NC(=O)c1cccc(NC(=O)/C=C\C(=O)N2CCN(c3ccc(-c4ccccc4)cc3)CC2)c1 | – |

The next lines start with the compound.

| Structure (SMILES) | pIC50 [1] | pIC50 [3] | pIC50 [4] | Ratio IC50 (Homo sapiens) | other results |
| --- | --- | --- | --- | --- | --- |
| NC(=O)c1cccc(N2C(=O)CC(N3CCN(c4ccccc4F)CC3)C2=O)c1 (stereo unspecified) | < 4.70 | – | – | – | – |
| CCOC(=O)C1CCN(C(=O)/C=C\C(=O)Nc2cccc(C(N)=O)c2)CC1 | – | – | – | – | inhibition [2]: 28% |
| CCOC(=O)CC1CCN(C(=O)/C=C\C(=O)Nc2cccc(C(N)=O)c2)CC1 | 5.62 | – | – | – | IC50 [1]: 407 nM |
| COc1ccc(N2CCN(C(=O)/C=C\C(=O)Nc3cccc(C(N)=O)c3)CC2)cc1 | 5.47 | – | – | – | – |
| NC(=O)c1cccc(NC(=O)/C=C\C(=O)N2CCN(c3ccc(F)cc3)CC2)c1 | 6.15 | 6.25 | 5.57 | 3.9 | pIC50 [5]: 5.09; pIC50 [6]: 6.28; pIC50 [7]: 6.25 |
| NC(=O)c1cccc(NC(=O)/C=C\C(=O)N2CCN(c3ccc(Cl)cc3)CC2)c1 | 6.80 | 6.66 | 6.05 | 5.6 | IC50 [1]: 617 nM; IC50 [4]: 977 nM |
| CC(C)(C)OC(=O)N1CCN(C(=O)/C=C\C(=O)Nc2cccc(C(N)=O)c2)CC1 | 6.43 | – | – | – | – |
| CCOC(=O)C1CCCN(C(=O)/C=C\C(=O)Nc2cccc(C(N)=O)c2)C1 (stereo unspecified) | – | – | – | – | inhibition [2]: 21% |
| NC(=O)c1cccc(NC(=O)/C=C\C(=O)N2CCN(c3ncccn3)CC2)c1 | 5.55 | – | – | – | – |
